Laboratory results as given in patent publication US20260028365A1 (BIOGEN MA INC., priority 2022, published 2026).
Read-outs that look alike come from different tables or passages of the source.

Tests used:
Tyk2 = Tyk2 (Homo sapiens (Human), UniProt P29597); assay: pSTAT4 Cell Assay (MSD, NK92 cells); format: cell-based
JH2 domain of human Tyk2 = JH2 domain of human Tyk2 (Homo sapiens (Human), UniProt P29597); assay: JH2 Biochemical Assay (TR-FRET probe displacement); format: binding
[1] = TR-FRET probe displacement, JH2 domain
[2] = TR-FRET probe displacement, JH2 domain of human Tyk2
[3] = JH2 domain of human Tyk2, TR-FRET probe displacement

Chain of Tyk2 (P29597 whole entry, the tested form may be a part): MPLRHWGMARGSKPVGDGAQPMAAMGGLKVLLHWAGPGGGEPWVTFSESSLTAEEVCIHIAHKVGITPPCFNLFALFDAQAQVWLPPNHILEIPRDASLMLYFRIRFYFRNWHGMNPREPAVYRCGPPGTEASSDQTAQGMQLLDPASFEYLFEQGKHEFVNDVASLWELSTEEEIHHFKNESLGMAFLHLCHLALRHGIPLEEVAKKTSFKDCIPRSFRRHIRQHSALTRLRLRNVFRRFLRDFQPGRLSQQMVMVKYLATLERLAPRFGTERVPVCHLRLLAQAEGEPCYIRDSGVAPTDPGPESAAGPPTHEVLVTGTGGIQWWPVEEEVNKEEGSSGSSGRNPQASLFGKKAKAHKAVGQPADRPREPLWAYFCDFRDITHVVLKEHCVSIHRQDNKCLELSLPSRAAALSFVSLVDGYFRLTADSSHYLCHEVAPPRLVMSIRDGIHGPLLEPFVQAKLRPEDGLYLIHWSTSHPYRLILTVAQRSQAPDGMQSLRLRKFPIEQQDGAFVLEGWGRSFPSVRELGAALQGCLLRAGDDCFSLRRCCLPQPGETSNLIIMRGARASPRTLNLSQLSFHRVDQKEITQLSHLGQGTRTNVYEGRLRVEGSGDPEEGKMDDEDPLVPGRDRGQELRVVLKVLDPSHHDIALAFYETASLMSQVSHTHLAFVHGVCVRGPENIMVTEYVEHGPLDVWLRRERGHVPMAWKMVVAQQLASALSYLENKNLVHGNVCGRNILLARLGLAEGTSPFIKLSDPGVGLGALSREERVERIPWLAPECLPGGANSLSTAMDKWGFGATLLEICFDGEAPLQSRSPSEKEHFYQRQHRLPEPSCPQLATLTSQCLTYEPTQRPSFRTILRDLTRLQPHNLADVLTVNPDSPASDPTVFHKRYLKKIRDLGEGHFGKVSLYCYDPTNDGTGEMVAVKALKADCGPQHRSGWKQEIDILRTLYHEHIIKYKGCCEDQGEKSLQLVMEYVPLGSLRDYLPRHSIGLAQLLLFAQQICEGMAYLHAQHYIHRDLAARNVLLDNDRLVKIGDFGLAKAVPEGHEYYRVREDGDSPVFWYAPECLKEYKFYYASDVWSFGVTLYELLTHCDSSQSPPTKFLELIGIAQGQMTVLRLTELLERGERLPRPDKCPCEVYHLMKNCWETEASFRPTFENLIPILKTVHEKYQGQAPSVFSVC
Chain of JH2 domain of human Tyk2 (P29597 575-876): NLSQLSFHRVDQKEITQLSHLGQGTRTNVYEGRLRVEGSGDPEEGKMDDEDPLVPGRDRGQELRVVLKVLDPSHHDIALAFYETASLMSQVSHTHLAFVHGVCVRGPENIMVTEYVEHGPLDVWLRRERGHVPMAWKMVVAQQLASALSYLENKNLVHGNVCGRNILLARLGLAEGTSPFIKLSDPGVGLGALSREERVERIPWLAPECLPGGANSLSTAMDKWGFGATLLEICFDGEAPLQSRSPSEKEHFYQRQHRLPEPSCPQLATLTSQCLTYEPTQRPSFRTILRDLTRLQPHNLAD

SMILES	IC50 (Tyk2) [nM]	IC50 (JH2 domain of human Tyk2; [1]) [nM]	IC50 (Tyk2; MSD) [nM]	IC50 (JH2 domain of human Tyk2; [2]) [nM]	IC50 (JH2 domain of human Tyk2; [3]) [nM]
CC(=O)Nc1cc(Nc2ccnc(C(C)(F)F)n2)c(-c2ccc(CNC3CCOCC3)cn2)cn1 [Example 883]	≤ 10	≤ 10	–	–	–
COC(C)(C)c1cc(-c2cnc(NC(C)=O)cc2Nc2cc(C)nc(C(C)(F)F)n2)nn1C [Example 758, N-(4-((2-(1,1-difluoroethyl)-6-methylpyrimidin-4-yl)amino)-5-(5-(2-methoxypropan-2-yl)-1-methyl-1H-pyrazol-3-yl)pyridin-2-yl)acetamide]	≤ 10	≤ 10	–	–	–
CC(=O)Nc1cc(Nc2cc(C)nc(C(C)(F)F)n2)c(OCc2ccc(F)cn2)cn1 [Example 125, N-(4-((2-(1,1-difluoroethyl)-6-methylpyrimidin-4-yl)amino)-5-((5-fluoropyridin-2-yl)methoxy)pyridin-2-yl)acetamide]	–	–	10 to 100	≤ 10	–
CCc1cc(Nc2cc(NC(C)=O)ncc2OCCN2CCN(C)CC2)nc(C(C)(F)F)n1 [Example 71, N-(4-((2-(1,1-difluoroethyl)-6-ethylpyrimidin-4-yl)amino)-5-(2-(4-methylpiperazin-1-yl)ethoxy)pyridin-2-yl)acetamide]	–	–	≤ 10	≤ 10	–
CC(=O)Nc1cc(Nc2ccnc(C(C)(F)F)n2)c(-c2cc(OC(F)F)ncn2)cn1 [Example 767, N-(4-((2-(1,1-difluoroethyl)pyrimidin-4-yl)amino)-5-(6-(difluoromethoxy)pyrimidin-4-yl)pyridin-2-yl)acetamide]	10 to 100	≤ 10	–	–	–
CCOc1cnc(NC(C)=O)cc1Nc1cc(-c2cncc(C)c2)nc(C(C)(F)F)n1 [Example 367, N-(4-((2-(1,1-difluoroethyl)-6-(5-methylpyridin-3-yl)pyrimidin-4-yl)amino)-5-ethoxypyridin-2-yl)acetamide]	–	–	10 to 100	≤ 10	–
COc1cnc(NC(C)=O)cc1Nc1cc(C)nc(C23COC(C2)C3)n1 [Example 448, N-(4-((2-(2-oxabicyclo[2.1.1]hexan-4-yl)-6-methylpyrimidin-4-yl)amino)-5-methoxypyridin-2-yl)acetamide]	–	–	100 to 1000	–	10 to 100
CC(=O)Nc1cc(Nc2cc(C)nc(C(C)(F)F)n2)c(OCc2ncc(C3CC3)o2)cn1 [Example 342, N-(5-((5-cyclopropyloxazol-2-yl)methoxy)-4-((2-(1,1-difluoroethyl)-6-methylpyrimidin-4-yl)amino)pyridin-2-yl)acetamide]	–	–	100 to 1000	≤ 10	–
CC(=O)Nc1cc(Nc2ccnc(C(C)(F)F)n2)c(-c2cc(N(C)C)ncn2)cn1 [Example 256, N-(4-((2-(1,1-difluoroethyl)pyrimidin-4-yl)amino)-5-(6-(dimethylamino)pyrimidin-4-yl)pyridin-2-yl)acetamide]	–	–	≥ 1000	10 to 100	–
CC(=O)Nc1cc(Nc2cc(C)nc(C(C)(F)F)n2)c(-c2cnc(CN(C)C)cn2)cn1 [Example 807, N-(4-((2-(1,1-difluoroethyl)-6-methylpyrimidin-4-yl)amino)-5-(5-((dimethylamino)methyl)pyrazin-2-yl)pyridin-2-yl)acetamide]	≤ 10	≤ 10	–	–	–
CC(=O)Nc1cc(Nc2cc(C)nc(C(C)(F)F)n2)c(OCC2(C#N)CC2)cn1 [Example 84, N-(5-((1-cyanocyclopropyl)methoxy)-4-((2-(1,1-difluoroethyl)-6-methylpyrimidin-4-yl)amino)pyridin-2-yl)acetamide]	–	–	10 to 100	≤ 10	–
CC(=O)Nc1cc(Nc2cc(C)nc(C(C)(F)F)n2)c(OCC2(F)CCCOC2)cn1 (stereo not drawn) [Example 417, N-(4-((2-(1,1-difluoroethyl)-6-methylpyrimidin-4-yl)amino)-5-((3-fluorotetrahydro-2H-pyran-3-yl)methoxy)pyridin-2-yl)acetamide]	–	–	≤ 10	–	≤ 10
COC(C)COc1cnc(NC(C)=O)cc1Nc1cc(C)nc(C(C)(F)F)n1 (stereo not drawn) [Example 60, N-(4-((2-(1,1-difluoroethyl)-6-methylpyrimidin-4-yl)amino)-5-(2-methoxypropoxy)pyridin-2-yl)acetamide]	–	–	10 to 100	≤ 10	–
CNC(=O)Nc1cc(Nc2ccnc(C(C)(F)F)n2)c(-c2cc3n(n2)CCN(C)C3)cn1 [Example 794, 1-(4-((2-(1,1-difluoroethyl)pyrimidin-4-yl)amino)-5-(5-methyl-4,5,6,7-tetrahydropyrazolo[1,5-a]pyrazin-2-yl)pyridin-2-yl)-3-methylurea]	≤ 10	≤ 10	–	–	–
CC(=O)Nc1cc(Nc2cc(C)nc(C3(F)CC3)n2)c(-c2ccn(C)n2)cn1 [Example 558, N-(4-((2-(1-fluorocyclopropyl)-6-methylpyrimidin-4-yl)amino)-5-(1-methyl-1H-pyrazol-3-yl)pyridin-2-yl)acetamide]	–	–	≤ 10	–	≤ 10
CCOc1cnc(NC(C)=O)cc1Nc1cc(-c2cnn(CC(F)(F)F)c2)nc(C(C)(F)F)n1 [Example 309, N-(4-((2-(1,1-difluoroethyl)-6-(1-(2,2,2-trifluoroethyl)-1H-pyrazol-4-yl)pyrimidin-4-yl)amino)-5-ethoxypyridin-2-yl)acetamide]	–	–	10 to 100	≤ 10	–
CC(=O)Nc1cc(Nc2cc(C)nc(C(C)(F)F)n2)c(-c2nccc(C3CC3)n2)cn1 [Example 666, N-(5-(4-cyclopropylpyrimidin-2-yl)-4-((2-(1,1-difluoroethyl)-6-methylpyrimidin-4-yl)amino)pyridin-2-yl)acetamide]	–	–	100 to 1000	–	≤ 10
[2H]C([2H])([2H])C([2H])([2H])Oc1cnc(NC(C)=O)cc1Nc1cc(-c2cnn(C(C)C)c2)nc(C(C)(F)F)n1 [Example 361, N-(4-((2-(1,1-difluoroethyl)-6-(1-isopropyl-1H-pyrazol-4-yl)pyrimidin-4-yl)amino)-5-(ethoxy-d5)pyridin-2-yl)acetamide]	–	–	≤ 10	≤ 10	–
CC(=O)Nc1cc(Nc2cc(C)nc(C(C)(F)F)n2)c(OCc2cncc(F)c2)cn1 [Example 474, N-(4-((2-(1,1-difluoroethyl)-6-methylpyrimidin-4-yl)amino)-5-((5-fluoropyridin-3-yl)methoxy)pyridin-2-yl)acetamide]	–	–	10 to 100	–	≤ 10
COc1cnc(NC(C)=O)cc1Nc1cc(-c2cnn(C3COC3)c2)nc(C(C)(F)F)n1 [Example 377, N-(4-((2-(1,1-difluoroethyl)-6-(1-(oxetan-3-yl)-1H-pyrazol-4-yl)pyrimidin-4-yl)amino)-5-methoxypyridin-2-yl)acetamide]	–	–	10 to 100	–	10 to 100
CC(=O)Nc1cc(Nc2cc(C)nc(C(C)(F)F)n2)c(OCC2CCCN2C)cn1 (stereo not drawn) [Example 479, N-(4-((2-(1,1-difluoroethyl)-6-methylpyrimidin-4-yl)amino)-5-((1-methylpyrrolidin-2-yl)methoxy)pyridin-2-yl)acetamide]	–	–	100 to 1000	–	≤ 10
CC(=O)Nc1cc(Nc2cc(C)nc(C(C)(C)F)n2)c(-c2ccn3ccnc3n2)cn1 [Example 533, N-(4-((2-(2-fluoropropan-2-yl)-6-methylpyrimidin-4-yl)amino)-5-(imidazo[1,2-a]pyrimidin-7-yl)pyridin-2-yl)acetamide]	–	–	≤ 10	–	≤ 10
CC(=O)Nc1cc(Nc2cc(C)nc(C(C)(F)F)n2)c(OCc2cc(C)on2)cn1 [Example 497, N-(4-((2-(1,1-difluoroethyl)-6-methylpyrimidin-4-yl)amino)-5-((5-methylisoxazol-3-yl)methoxy)pyridin-2-yl)acetamide]	–	–	10 to 100	–	≤ 10
CC(=O)Nc1cc(Nc2cc(C)nc(C(C)(F)F)n2)c(-c2nc(C)co2)cn1 [Example 592, N-(4-((2-(1,1-difluoroethyl)-6-methylpyrimidin-4-yl)amino)-5-(4-methyloxazol-2-yl)pyridin-2-yl)acetamide]	–	–	10 to 100	–	≤ 10
CCOCCn1ccc(-c2cnc(NC(C)=O)cc2Nc2cc(C)nc(C(C)(F)F)n2)n1 [Example 229, N-(4-((2-(1,1-difluoroethyl)-6-methylpyrimidin-4-yl)amino)-5-(1-(2-ethoxyethyl)-1H-pyrazol-3-yl)pyridin-2-yl)acetamide]	–	–	≤ 10	≤ 10	–
CC(=O)Nc1cc(Nc2cc(C)nc(C(C)(F)F)n2)c(-c2ccc3nccn3n2)cn1 [Example 680, N-(4-((2-(1,1-difluoroethyl)-6-methylpyrimidin-4-yl)amino)-5-(imidazo[1,2-b]pyridazin-6-yl)pyridin-2-yl)acetamide]	–	–	10 to 100	–	≤ 10
CC(=O)Nc1cc(Nc2cc(C)nc(C(C)(F)F)n2)c(OCCOC(C)C)cn1 [Example 482, N-(4-((2-(1,1-difluoroethyl)-6-methylpyrimidin-4-yl)amino)-5-(2-isopropoxyethoxy)pyridin-2-yl)acetamide]	–	–	10 to 100	–	≤ 10
CC(=O)Nc1cc(Nc2cc(C)nc(C(C)(F)F)n2)c([C@@H]2CCCO2)cn1 (single isomer, unassigned) [Example 279, (S)—N-(4-((2-(1,1-difluoroethyl)-6-methylpyrimidin-4-yl)amino)-5-(tetrahydrofuran-2-yl)pyridin-2-yl)acetamide or (R)-N-(4-((2-(1,1-difluoroethyl)-6-methylpyrimidin-4-yl)amino)-5-(tetrahydrofuran-2-yl)pyridin-2-yl)acetamide]	–	–	100 to 1000	10 to 100	–
CC(=O)Nc1cc(Nc2cc(C)nc(C(C)(F)F)n2)c(-c2ccc(C(F)F)cn2)cn1 [Example 827, N-(4′-((2-(1,1-difluoroethyl)-6-methylpyrimidin-4-yl)amino)-5-(difluoromethyl)-[2,3′-bipyridin]-6′-yl)acetamide]	≤ 10	≤ 10	–	–	–
COc1cnc(NC(C)=O)cc1Nc1cc(C)nc(C2CCOC2)n1 (stereo not drawn) [Example 451, N-(5-methoxy-4-((6-methyl-2-(tetrahydrofuran-3-yl)pyrimidin-4-yl)amino)pyridin-2-yl)acetamide]	–	–	≥ 1000	–	10 to 100
